This data set can be described thus: Solubility of API in water. In kind it is physicochemical. The conditions noted are these: 25 °C. The text has this: The skilled reader will readily appreciate that the granules of the disclosure rapidly disperse. It is therefore apparent that the physical properties of the API and in particular its solubility will have no impact on the dispersion time.

Structures are written as SMILES. In brackets after ≈: the same amount, converted by molar mass.

For orientation: solubility means how much of the substance goes into solution per volume. A low value points to little dissolved substance. Turning to `O=c1ccc2ncc(=O)n3c2n1C[C@H]3CN1CCC(NCc2cc3c(cn2)OCCC3)CC1` [gepotidacin, (2R)-2-({4-[(3,4-Dihydro-2H-pyrano[2,3-c]pyridin-6-ylmethyl)amino]-1-piperidinyl}methyl)-1,2-dihydro-3H,8H-2a,5,8a-triazaacenaphthylene-3,8-dione], the concentration in solution (solubility) was 175 mg/mL (≈ 390 mM).
With `C[C@H]1CO[C@@H]2Cn3cc(C(=O)NCc4ccc(F)cc4F)c(=O)c(O)c3C(=O)N12` [cabotegravir, (3R,6S)—N-[(2,4-difluorophenyl)methyl]-10-hydroxy-6-methyl-8,11-dioxo-4-oxa-1,7-diazatricyclo[7.4.0.03,7]trideca-9,12-diene-12-carboxamide], the concentration in solution (solubility) was 2.9 mg/mL (≈ 7.15 mM).

For the origin of these results see US20260041639A1, “GEPOTIDACIN FORMULATION” (GLAXOSMITHKLINE INTELLECTUAL PROPERTY DEVELOPMENT LIMITED, priority 2022, published 2026).
